Measurements as given in BindingDB's records for PubMed 35598527 (Universidade Federal De Minas Gerais, 2022).

Assay: Antagonist activity at pig cerebral cortex CCK2 […] by Packbard-Cobra counter analysis

SMILES | IC50 [nM]
CC(C)CNC1=C(Cl)C(=O)OC1OCc1ccccc1 (configuration not stated) | 85
C#CCOC1OC(=O)C(Cl)=C1N(CC(C)C)C1CCCCC1 (configuration not stated) | 80
